# US12528812B2 (Genentech, Inc., priority 2020, dated 2026)
# Columns and labels:
# [1] = target: Recombinant human JAK2 kinase domain protein (Residues 812-1132) (Homo sapiens, UniProt O60674); assay: JAK2 biochemical assay (LabChip mobility shift, Ki); settings: Biochem JAK2 Ki
# [2] = test system: IL-13-stimulated STAT6 phosphorylation in human lung bronchial epithelial BEAS-2B cell line; assay: P-STAT6 BEAS-2B + IL-13 cell assay; format: cell-based; settings: Homo sapiens, BEAS-2B, BEAS2B cells, IL13 stimulation; read-out: Cellular JAK1 PSTAT6 BEAS2B + IL13
# Description: In order to study the effect of JAK1 inhibitors in a cell line that is relevant to the cell biology of human asthma, an IL-13-stimulated STAT6 phosphorylation assay in the human lung bronchial epithelial BEAS-2B cell line was developed.
# BEAS-2B cells (ATCC′ CRL-9609™) were grown in Bronchial Epithelial Growth Medium (BEGM) (Lonza Catalog No. CC-3170; Walkersville, MD; or PromoCell Catalog No. C-21060; Heidelberg, Germany). Test compound stock solutions (0.5 mM in DMSO) were serially diluted 1:2 in DMSO to generate a 10-point concentration curve (at 500× test concentration), which was further diluted by a 50-fold dilution step in BEGM to generate a 10× concentration curve (in 2% DMSO). Cells were plated at 100,000 cells/well in 200 μL of BEGM in 96-well plates and incubated for 48 hours at 37° C. in a humidified incubator. Medium was aspirated from the cells and replaced with 70 μL of fresh BEGM. Diluted test compound (10 μL; or 2% DMSO in assay medium) was added to the cells, and the plates were incubated for 1 hour at 37° C. in a humidified incubator. Twenty μL of 250 ng/mL human recombinant IL-13 (Bio Techne Catalog No. 213-ILB) was then added to the cells and incubated for 15 minutes at 37° C. Medium was aspirated from the cells and 60 μL of ice-cold 1× cell lysis buffer (Cell Signaling Technologies; Catalog No. 9803S) containing 1 mM PMSF was added to the cells. Assay plates were incubated at −80° C. for at least 1 hour. P-STAT6 was measured by coating GAR plates (MSD; Catalog No. L45RA-1) with rabbit anti-human total STAT6 antibody (Cell Signaling Technologies; Catalog No. 9362S), incubating the cell lysates in the coated plates overnight at 4° C., and then detecting with mouse anti-phospho-STAT6 (Tyr641) Clone 16E12 antibody (Millipore; Catalog No. 05-590, custom labeled by MSD with SULFO-tag) using standard MSD plate processing, washing, and detection protocols. Plates were read on the MESO SECTOR 5600.
# Data analysis was performed by subtracting negative control values from all wells and determining percent of control using the positive control values; the IC50 was determined with a four-parameter logistic fit model as shown in Equation 4.
# [3] = target: T1, recombinant human JAK1 kinase domain protein (Residues 854-1154) (Homo sapiens, UniProt P23458); assay: JAK1 biochemical assay (LabChip mobility shift, Ki); settings: read-out: Biochem JAK1 Ki
# T1 construct: human JAK1 kinase domain protein (Residues 854-1154); purchased Proteros Biostructures GmbH (Martinsried, Germany); host or cells: insect cells
# T1 sequence (P23458 854-1154): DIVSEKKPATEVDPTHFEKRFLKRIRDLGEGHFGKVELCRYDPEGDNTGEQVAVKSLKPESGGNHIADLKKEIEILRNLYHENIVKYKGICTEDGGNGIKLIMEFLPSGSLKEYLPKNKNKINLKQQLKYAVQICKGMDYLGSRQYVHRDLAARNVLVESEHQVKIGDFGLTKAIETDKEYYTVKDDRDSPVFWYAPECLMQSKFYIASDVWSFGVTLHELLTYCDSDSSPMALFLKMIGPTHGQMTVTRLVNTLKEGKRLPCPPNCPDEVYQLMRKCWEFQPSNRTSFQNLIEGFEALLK
# Recombinant human JAK2 kinase domain protein (Residues 812-1132), sequence (O60674 812-1132): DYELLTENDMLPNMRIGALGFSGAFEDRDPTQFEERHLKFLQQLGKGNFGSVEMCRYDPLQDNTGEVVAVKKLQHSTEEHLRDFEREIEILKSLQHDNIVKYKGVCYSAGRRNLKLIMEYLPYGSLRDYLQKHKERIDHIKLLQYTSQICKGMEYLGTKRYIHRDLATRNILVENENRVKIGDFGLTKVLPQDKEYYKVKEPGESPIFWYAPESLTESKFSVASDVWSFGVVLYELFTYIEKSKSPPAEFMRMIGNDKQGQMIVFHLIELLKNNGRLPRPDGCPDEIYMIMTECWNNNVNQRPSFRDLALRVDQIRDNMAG
SMILES,Ki [1],IC50 [2],Ki [3]
"CN1CCC[C@H]1Cn1cc(NC(=O)c2cnn3cccnc23)c(-c2cc(Oc3ccccc3)ccc2OC(F)F)n1 (racemic) [Example 31, N-[3-[2-(difluoromethoxy)-5-phenoxy-phenyl]-1-[[rac-(2R)-1-methylpyrrolidin-2-yl]methyl]pyrazol-4-yl]pyrazolo[1,5-a]pyrimidine-3-carboxamide]",0.86 nM,9.2 nM,0.37 nM
"CN1CCC[C@H]1Cn1cc(NC(=O)c2cnn3cccnc23)c(-c2cc(Oc3cccc(CC#N)c3)ccc2OC(F)F)n1 (racemic) [Example 37, N-[3-[5-[3-(cyanomethyl)phenoxy]-2-(difluoromethoxy)phenyl]-1-[[rac-(2R)-1-methylpyrrolidin-2-yl]methyl]pyrazol-4-yl]pyrazolo[1,5-a]pyrimidine-3-carboxamide]",1.4 nM,16 nM,0.55 nM
"Cn1cc(NC(=O)c2cnn3cccnc23)c(-c2cc(Oc3cccc(C4CNCCO4)c3)ccc2OC(F)F)n1 (racemic) [Example 38, N-[3-[2-(difluoromethoxy)-5-[3-[rac-(2R)-morpholin-2-yl]phenoxy]phenyl]-1-methyl-pyrazol-4-yl]pyrazolo[1,5-a]pyrimidine-3-carboxamide]",0.38 nM,22 nM,0.52 nM
"CN1CCCC1Cn1cc(NC(=O)c2cnn3cccnc23)c(-c2cc(Oc3cccc(C4CNCCO4)c3)ccc2OC(F)F)n1 (racemic) [Example 41, N-[3-[2-(difluoromethoxy)-5-(3-morpholin-2-ylphenoxy)phenyl]-1-[[rac-(2R)-1-methylpyrrolidin-2-yl]methyl]pyrazol-4-yl]pyrazolo[1,5-a]pyrimidine-3-carboxamide]",4.4 nM,210 nM,1.4 nM
"Cn1cc(NC(=O)c2cnn3cccnc23)c(-c2cc(Oc3cccc([C@H]4CNCCO4)c3)ccc2OC(F)F)n1 (racemic) [Example 42, N-[3-[2-(difluoromethoxy)-5-[3-[rac-(2S)-morpholin-2-yl]phenoxy]phenyl]-1-methyl-pyrazol-4-yl]pyrazolo[1,5-a]pyrimidine-3-carboxamide]",0.39 nM,11 nM,0.37 nM
"Cc1ccc(Oc2ccc(OC(F)F)c(-c3nn(CC4CCCN4C)cc3NC(=O)c3cnn4cccnc34)c2)cc1C(=O)N(C)C (racemic) [Example 51, N-[3-[2-(difluoromethoxy)-5-[3-(dimethylcarbamoyl)-4-methyl-phenoxy]phenyl]-1-[[rac-(2R)-1-methylpyrrolidin-2-yl]methyl]pyrazol-4-yl]pyrazolo[1,5-a]pyrimidine-3-carboxamide]",1.8 nM,45 nM,1.3 nM
"Cc1ccc(Oc2ccc(OC(F)F)c(-c3nn(CCN[C@H]4CCOC4)cc3NC(=O)c3cnn4cccnc34)c2)cc1C(=O)N(C)C (racemic) [Example 58, N-[3-[2-(difluoromethoxy)-5-[3-(dimethylcarbamoyl)-4-methyl-phenoxy]phenyl]-1-[2-[[rac-(3R)-tetrahydrofuran-3-yl]amino]ethyl]pyrazol-4-yl]pyrazolo[1,5-a]pyrimidine-3-carboxamide]",0.7 nM,33 nM,1.2 nM
"Cc1ccc(Oc2ccc(OC(F)F)c(-c3nn(CCN[C@H]4CCCOC4)cc3NC(=O)c3cnn4cccnc34)c2)cc1C(=O)N(C)C (racemic) [Example 83, N-[3-[2-(difluoromethoxy)-5-[3-(dimethylcarbamoyl)-4-methyl-phenoxy]phenyl]-1-[2-[[rac-(3R)-tetrahydropyran-3-yl]amino]ethyl]pyrazol-4-yl]pyrazolo[1,5-a]pyrimidine-3-carboxamide]",1 nM,150 nM,1.7 nM
"Cc1ccc(Oc2ccc(OC(F)F)c(-c3nn(C[C@@H]4C[C@@H](F)CN4C)cc3NC(=O)c3cnn4cccnc34)c2)cc1C(=O)N(C)C (racemic) [Example 89, N-[3-[2-(difluoromethoxy)-5-[3-(dimethylcarbamoyl)-4-methyl-phenoxy]phenyl]-1-[[rac-(2R,4S)-4-fluoro-l-methyl-pyrrolidin-2-yl]methyl]pyrazol-4-yl]pyrazolo[1,5-a]pyrimidine-3-carboxamide]",1.3 nM,120 nM,1.2 nM
"Cn1cc(NC(=O)c2cnn3cccnc23)c(-c2cc(Oc3cccc(CN4CCOC[C@@H]4CO)c3)ccc2OC(F)F)n1 (racemic) [Example 93, N-[3-[2-(difluoromethoxy)-5-[3-[[rac-(3R)-3-(hydroxymethyl)morpholin-4-yl]methyl]phenoxy]phenyl]-1-methyl-pyrazol-4-yl]pyrazolo[1,5-a]pyrimidine-3-carboxamide]",0.65 nM,89 nM,1.2 nM
"C[C@H](O)Cn1cc(Oc2ccc(OC(F)F)c(-c3nn(C)cc3NC(=O)c3cnn4cccnc34)c2)cn1 (racemic) [Example 120, N-[3-[2-(difluoromethoxy)-5-[1-[rac-(2R)-2-hydroxypropyl]pyrazol-4-yl]oxy-phenyl]-1-methyl-pyrazol-4-yl]pyrazolo[1,5-a]pyrimidine-3-carboxamide]",0.24 nM,19 nM,0.35 nM
"Cn1cc(NC(=O)c2cnn3cccnc23)c(-c2cc(Oc3cnn(C4CCNC4)c3)ccc2OC(F)F)n1 (racemic) [Example 139, N-[3-[2-(difluoromethoxy)-5-[1-[rac-(3R)-pyrrolidin-3-yl]pyrazol-4-yl]oxy-phenyl]-1-methyl-pyrazol-4-yl]pyrazolo[1,5-a]pyrimidine-3-carboxamide]",1.5 nM,70 nM,2 nM
"CN1CCC(n2cc(Oc3ccc(OC(F)F)c(-c4nn(C)cc4NC(=O)c4cnn5cccnc45)c3)cn2)C1 (racemic) [Example 140, N-[3-[2-(difluoromethoxy)-5-[1-[rac-(3S)-1-methylpyrrolidin-3-yl]pyrazol-4-yl]oxy-phenyl]-1-methyl-pyrazol-4-yl]pyrazolo[1,5-a]pyrimidine-3-carboxamide]",1.9 nM,44 nM,2.6 nM
"O=C(Nc1c[nH]nc1-c1cc(Oc2ccccc2)ccc1OC(F)F)c1cnn2cccnc12 [Example 1, N-[3-[2-(difluoromethoxy)-5-phenoxy-phenyl]-1H-pyrazol-4-yl]pyrazolo[1,5-a]pyrimidine-3-carboxamide]",0.096 nM,,0.18 nM
"Cn1cc(NC(=O)c2cnn3cccnc23)c(-c2cc(Oc3cnn(CCN4CCOCC4)c3)ccc2OC(F)F)n1 [Example 68, N-[3-[2-(difluoromethoxy)-5-[1-(2-morpholinoethyl)pyrazol-4-yl]oxy-phenyl]-1-methyl-pyrazol-4-yl]pyrazolo[1,5-a]pyrimidine-3-carboxamide]",2.9 nM,,6.2 nM
"CNC(=O)c1cncc(Oc2ccc(OC(F)F)c(-c3nn(C)cc3NC(=O)c3cnn4cccnc34)c2)c1 [Example 158, N-[3-[2-(difluoromethoxy)-5-[[5-(methylcarbamoyl)-3-pyridyl]oxy]phenyl]-1-methyl-pyrazol-4-yl]pyrazolo[1,5-a]pyrimidine-3-carboxamide]",,37 nM,0.62 nM
"CCCN(CCCO)Cc1ccc(Oc2ccc(OC(F)F)c(-c3nn(C)cc3NC(=O)c3cnn4cccnc34)c2)cc1 [Example 161, N-(3-(2-(difluoromethoxy)-5-(4-(((3-hydroxypropyl) (propyl)amino)methyl)phenoxy)phenyl)-1-methyl-1H-pyrazol-4-yl)pyrazolo[1,5-a]pyrimidine-3-carboxamide]",2.2 nM,,6 nM
"Cn1cc(NC(=O)c2cnn3cccnc23)c(-c2cc(Oc3cnn(CCBr)c3)ccc2OC(F)F)n1 [Example 214, N-[3-[5-[1-(2-bromoethyl)pyrazol-4-yl]oxy-2-(difluoromethoxy)phenyl]-1-methyl-pyrazol-4-yl]pyrazolo[1,5-a]pyrimidine-3-carboxamide]",0.68 nM,,1.1 nM
"Cn1cc(NC(=O)c2cnn3cccnc23)c(-c2cc(Oc3cnn(CCC4CO4)c3)ccc2OC(F)F)n1 (stereo not drawn) [Example 215, N-[3-[2-(difluoromethoxy)-5-[1-[2-(oxiran-2-yl)ethyl]pyrazol-4-yl]oxy-phenyl]-1-methyl-pyrazol-4-yl]pyrazolo[1,5-a]pyrimidine-3-carboxamide]",1.1 nM,,1.9 nM
